Active and inactive are the calls of the source.
Tests used:
Aspartyl aminopeptidase = biological target: T1, Aspartyl aminopeptidase (Plasmodium falciparum 3D7, UniProt Q8I2J3); experiment: Counterscreen for inhibitors of M1 and M17 aminopeptidases: QFRET-based biochemical high throughput dose response assay for inhibitors of the Plasmodium falciparum M18 Aspartyl Aminopeptidase (PFM18AAP). [Related PubChem assays: 1619 (Screening assay (M17LAP inhibitors).), 1445 (Screening assay (M1AAP inhibitors).)]
T1 sequence (Q8I2J3 whole entry): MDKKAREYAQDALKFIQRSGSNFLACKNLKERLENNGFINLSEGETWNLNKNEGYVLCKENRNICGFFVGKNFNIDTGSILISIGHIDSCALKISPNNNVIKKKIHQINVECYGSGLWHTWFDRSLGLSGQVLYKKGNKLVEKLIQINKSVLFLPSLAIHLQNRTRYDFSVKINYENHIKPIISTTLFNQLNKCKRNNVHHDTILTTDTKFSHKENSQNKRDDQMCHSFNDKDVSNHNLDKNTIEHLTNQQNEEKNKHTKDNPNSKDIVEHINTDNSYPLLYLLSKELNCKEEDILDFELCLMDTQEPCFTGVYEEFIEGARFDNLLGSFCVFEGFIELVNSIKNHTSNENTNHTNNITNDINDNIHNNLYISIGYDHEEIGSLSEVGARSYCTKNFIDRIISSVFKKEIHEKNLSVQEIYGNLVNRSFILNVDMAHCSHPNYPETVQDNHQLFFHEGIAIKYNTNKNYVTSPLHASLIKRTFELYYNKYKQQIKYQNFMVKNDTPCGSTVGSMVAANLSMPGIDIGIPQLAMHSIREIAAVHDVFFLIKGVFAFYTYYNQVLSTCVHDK

Procathepsin L = Procathepsin L (Homo sapiens, UniProt P07711); experiment: cathepsin L inhibitors, dose response, counter-screen for M1/M17 aminopeptidase inhibitor project, biochemical, QFRET, 1536-well (AID 2214)
Leucine aminopeptidase = biological target: T2, Leucine aminopeptidase (Plasmodium falciparum 3D7, UniProt Q8IL11); experiment: P. falciparum M17LAP inhibitors, primary screen, biochemical, fluorogenic H-Leu-NHMec substrate, 1536-well (AID 1619); assay type: functional
T2 sequence (Q8IL11 whole entry): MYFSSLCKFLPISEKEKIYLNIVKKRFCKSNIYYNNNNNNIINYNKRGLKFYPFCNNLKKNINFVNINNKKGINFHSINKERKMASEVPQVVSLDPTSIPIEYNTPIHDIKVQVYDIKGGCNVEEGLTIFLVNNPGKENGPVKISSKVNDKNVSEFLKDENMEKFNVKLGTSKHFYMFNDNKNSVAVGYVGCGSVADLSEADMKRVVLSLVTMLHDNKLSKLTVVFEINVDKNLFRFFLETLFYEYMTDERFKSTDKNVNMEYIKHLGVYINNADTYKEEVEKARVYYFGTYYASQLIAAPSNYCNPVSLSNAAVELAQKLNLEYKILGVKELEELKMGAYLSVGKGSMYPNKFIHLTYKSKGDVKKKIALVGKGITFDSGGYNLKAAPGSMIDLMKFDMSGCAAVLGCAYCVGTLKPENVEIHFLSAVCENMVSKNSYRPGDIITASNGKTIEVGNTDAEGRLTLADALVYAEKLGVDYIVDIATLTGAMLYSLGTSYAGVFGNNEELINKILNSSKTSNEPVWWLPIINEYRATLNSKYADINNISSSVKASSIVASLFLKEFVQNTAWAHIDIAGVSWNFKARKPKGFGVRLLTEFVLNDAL

[1] = biological target: Multidrug resistance protein CDR2 (Candida albicans (strain SC5314 / ATCC MYA-2876) (Yeast), UniProt P78595); experiment: CaCDR2 efflux pump inhibitors in yeast, dose response, S. cerevisiae AD1-8u, singleplex, Cherry Pick1 hits (AID 588604); assay type: functional
Misshapen-like kinase 1 = Misshapen-like kinase 1 (Homo sapiens, UniProt Q8N4C8); assay type: functional;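 further: kinome panel screen with MINK as the panel member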
[2] = biological target: MAP/microtubule affinity-regulating kinase 3 (Homo sapiens, UniProt P27448); assay type: functional;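 further: MARK3 affinity measured as one member of a kinome panel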
[3] = biological target: Serine/threonine-protein kinase PLK1 (Homo sapiens, UniProt P53350); assay type: functional;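 further: PLK1 measured as one member of a kinome-wide profiling panel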
[4] = biological target: Tyrosine-protein kinase SYK (Homo sapiens, UniProt P43405); assay type: functional
[5] = biological target: Homeodomain-interacting protein kinase 2 (Homo sapiens, UniProt Q9H2X6); assay type: functional;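 further: measured within a kinome-wide kinase profiling panel, HIPK2 being one panel member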
[6] = biological target: Serine/threonine-protein kinase PLK3 (Homo sapiens, UniProt Q9H4B4); assay type: functional
[7] = biological target: Glycogen synthase kinase-3 beta (Homo sapiens, UniProt P49841); assay type: functional;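 further: value comes from a broad kinome profiling panel, with GSK3B as the panel member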
[8] = biological target: Calcium/calmodulin-dependent protein kinase type II subunit beta (Homo sapiens, UniProt Q13554); assay type: functional
LIM domain kinase 1 = LIM domain kinase 1 (Homo sapiens, UniProt P53667); experiment: Navigating the Kinome. Panel member name: LIMK1; assay type: functional
[9] = biological target: Tyrosine-protein kinase Fyn (Homo sapiens, UniProt P06241); assay type: functional
[10] = biological target: Tyrosine-protein kinase BTK (Homo sapiens, UniProt Q06187); assay type: functional
Focal adhesion kinase 1 = Focal adhesion kinase 1 (Homo sapiens, UniProt Q05397); assay type: functional;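 further: measured as one member of a kinome panel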
[11] = biological target: Cyclin-dependent kinase 8 (Homo sapiens, UniProt P49336); experiment: Navigating the Kinome. Panel member name: CDK8; assay type: functional
[12] = biological target: Serine/threonine-protein kinase TAO1 (Homo sapiens, UniProt Q7L7X3); assay type: functional
[13] = biological target: Tyrosine-protein kinase Lck (Homo sapiens, UniProt P06239); assay type: functional;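 further: lck was assayed as one member of a kinase panel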
[14] = biological target: ALK tyrosine kinase receptor (Homo sapiens, UniProt Q9UM73); assay type: functional;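 further: ALK tested as one member of a kinase panel screen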
[15] = biological target: Serine/threonine-protein kinase pim-1 (Homo sapiens, UniProt P11309); assay type: functional
[16] = biological target: Dual specificity tyrosine-phosphorylation-regulated kinase 4 (Homo sapiens, UniProt Q9NR20); assay type: functional
[17] = biological target: RAC-gamma serine/threonine-protein kinase (Homo sapiens, UniProt Q9Y243); assay type: functional
[18] = biological target: Serine/threonine-protein kinase D3 (Homo sapiens, UniProt O94806); assay type: functional;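 further: determined within a kinase panel screen, with PRKCN as the panel member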
[19] = biological target: Dual specificity tyrosine-phosphorylation-regulated kinase 3 (Homo sapiens, UniProt O43781); assay type: functional;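 further: measured as one member of a broad kinase panel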
[20] = biological target: Cyclin-dependent kinase 2 (Homo sapiens, UniProt P24941); assay type: functional;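 further: CDK2 measured as one member of a broad kinome profiling panel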
[21] = biological target: Calcium/calmodulin-dependent protein kinase type II subunit delta (Homo sapiens, UniProt Q13557); assay type: functional
[22] = biological target: Cyclin-dependent kinase 9 (Homo sapiens, UniProt P50750); assay type: functional;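 further: value from the CDK9 entry of a kinome-spanning kinase panel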
[23] = biological target: Mitogen-activated protein kinase kinase kinase 20 (Homo sapiens, UniProt Q9NYL2); assay type: functional
[24] = biological target: Testis-specific serine/threonine-protein kinase 2 (Homo sapiens, UniProt Q96PF2); assay type: functional;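 further: part of the Navigating the Kinome panel, target entry STK22B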
[25] = biological target: Macrophage-stimulating protein receptor (Homo sapiens, UniProt Q04912); experiment: Navigating the Kinome. Panel member name: MST1R; assay type: functional
[26] = biological target: Tyrosine-protein kinase Blk (Homo sapiens, UniProt P51451); assay type: functional;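 further: obtained as one member of a kinome-wide kinase assay panel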
Wee1-like protein kinase = Wee1-like protein kinase (Homo sapiens, UniProt P30291); experiment: Navigating the Kinome. Panel member name: WEE1; assay type: functional
[27] = biological target: Receptor tyrosine-protein kinase erbB-4 (Homo sapiens, UniProt Q15303); assay type: functional;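 further: ERBB4 member of a kinome-wide kinase profiling panel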
[28] = biological target: Serine/threonine-protein kinase MRCK alpha (Homo sapiens, UniProt Q5VT25); assay type: functional
[29] = biological target: Casein kinase I isoform gamma-1 (Homo sapiens, UniProt Q9HCP0); assay type: functional;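 further: measured as the CSNK1G1 member of a kinome profiling panel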
[30] = biological target: Serine/threonine-protein kinase pim-2 (Homo sapiens, UniProt Q9P1W9); assay type: functional;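 further: value comes from a broad kinase panel profiling study in which PIM2 was one of the panel members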
[31] = biological target: Cyclin-dependent kinase 7 (Homo sapiens, UniProt P50613); assay type: functional;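 further: value comes from a kinome-wide kinase profiling panel in which CDK7 is one member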
[32] = biological target: Protein kinase C gamma type (Homo sapiens, UniProt P05129); assay type: functional
[33] = biological target: 5'-AMP-activated protein kinase catalytic subunit alpha-1 (Homo sapiens, UniProt Q13131); assay type: functional
[34] = biological target: cAMP-dependent protein kinase catalytic subunit PRKX (Homo sapiens, UniProt P51817); assay type: functional
[35] = biological target: Casein kinase I isoform delta (Homo sapiens, UniProt P48730); assay type: functional;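 further: measured as one member (CSNK1D) of a kinome panel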
[36] = biological target: Cell division cycle 7-related protein kinase (Homo sapiens, UniProt O00311); assay type: functional;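 further: value obtained from a kinome-wide kinase panel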
[37] = biological target: Mitogen-activated protein kinase kinase kinase kinase 5 (Homo sapiens, UniProt Q9Y4K4); assay type: functional;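 further: measured as one member of a kinome-spanning kinase panel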
[38] = biological target: Casein kinase II subunit alpha (Homo sapiens, UniProt P68400); assay type: functional
[39] = biological target: MAP kinase-activated protein kinase 3 (Homo sapiens, UniProt Q16644); assay type: functional;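 further: value comes from a kinome-wide profiling panel in which MAPKAPK3 is one of the panel members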
[40] = biological target: Cyclin-dependent kinase 1 (Homo sapiens, UniProt P06493); assay type: functional;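 further: Kinome-wide panel profiling, with the target listed as panel member CDC2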
[41] = biological target: Mitogen-activated protein kinase 14 (Homo sapiens, UniProt Q16539); assay type: functional;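 further: part of a kinome-wide panel, MAPK14 entry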
[42] = biological target: Glycogen synthase kinase-3 alpha (Homo sapiens, UniProt P49840); assay type: functional;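 further: GSK3A result taken from a broad kinome-wide kinase panel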
[43] = biological target: Protein kinase C iota type (Homo sapiens, UniProt P41743); assay type: functional;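 further: measured within a kinome-wide kinase panel, PRKCI as panel member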
[44] = biological target: Mitogen-activated protein kinase 9 (Homo sapiens, UniProt P45984); assay type: functional;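 further: value from a kinome panel profiling assay, MAPK9 panel entry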
[45] = biological target: Lymphokine-activated killer T-cell-originated protein kinase (Homo sapiens, UniProt Q96KB5); assay type: functional;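 further: value comes from a kinase panel screen in which TOPK was one of the panel members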
[46] = biological target: Mitogen-activated protein kinase 13 (Homo sapiens, UniProt O15264); assay type: functional
[47] = biological target: Vascular endothelial growth factor receptor 3 (Homo sapiens, UniProt P35916); assay type: functional;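 further: value from a kinome-wide profiling panel, with FLT4 as the panel member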
[48] = biological target: Cyclin-dependent kinase 5 (Homo sapiens, UniProt Q00535); assay type: functional;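 further: CDK5 measured as one member of a kinase profiling panel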
[49] = biological target: RAC-alpha serine/threonine-protein kinase (Homo sapiens, UniProt P31749); assay type: functional;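 further: AKT1 affinity measured as one member of a kinome-wide kinase profiling panel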
[50] = biological target: Tyrosine-protein kinase Lyn (Homo sapiens, UniProt P07948); assay type: functional;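 further: lyn as one member of a kinase panel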
[51] = biological target: cGMP-dependent protein kinase 1 (Homo sapiens, UniProt Q13976); assay type: functional;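 further: value from a kinome panel screen with PRKG1 as the panel member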

Sequence of Serine/threonine-protein kinase pim-1 (P11309 whole entry): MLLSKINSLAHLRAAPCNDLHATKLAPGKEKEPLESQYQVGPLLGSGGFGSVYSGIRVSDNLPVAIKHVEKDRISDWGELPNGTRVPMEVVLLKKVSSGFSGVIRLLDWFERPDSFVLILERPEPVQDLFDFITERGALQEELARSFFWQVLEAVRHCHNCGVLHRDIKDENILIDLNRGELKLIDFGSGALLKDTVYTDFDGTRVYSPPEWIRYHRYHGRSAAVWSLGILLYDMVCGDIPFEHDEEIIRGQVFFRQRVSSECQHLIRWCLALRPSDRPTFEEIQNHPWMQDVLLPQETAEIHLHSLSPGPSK
Sequence of Misshapen-like kinase 1 (Q8N4C8 whole entry): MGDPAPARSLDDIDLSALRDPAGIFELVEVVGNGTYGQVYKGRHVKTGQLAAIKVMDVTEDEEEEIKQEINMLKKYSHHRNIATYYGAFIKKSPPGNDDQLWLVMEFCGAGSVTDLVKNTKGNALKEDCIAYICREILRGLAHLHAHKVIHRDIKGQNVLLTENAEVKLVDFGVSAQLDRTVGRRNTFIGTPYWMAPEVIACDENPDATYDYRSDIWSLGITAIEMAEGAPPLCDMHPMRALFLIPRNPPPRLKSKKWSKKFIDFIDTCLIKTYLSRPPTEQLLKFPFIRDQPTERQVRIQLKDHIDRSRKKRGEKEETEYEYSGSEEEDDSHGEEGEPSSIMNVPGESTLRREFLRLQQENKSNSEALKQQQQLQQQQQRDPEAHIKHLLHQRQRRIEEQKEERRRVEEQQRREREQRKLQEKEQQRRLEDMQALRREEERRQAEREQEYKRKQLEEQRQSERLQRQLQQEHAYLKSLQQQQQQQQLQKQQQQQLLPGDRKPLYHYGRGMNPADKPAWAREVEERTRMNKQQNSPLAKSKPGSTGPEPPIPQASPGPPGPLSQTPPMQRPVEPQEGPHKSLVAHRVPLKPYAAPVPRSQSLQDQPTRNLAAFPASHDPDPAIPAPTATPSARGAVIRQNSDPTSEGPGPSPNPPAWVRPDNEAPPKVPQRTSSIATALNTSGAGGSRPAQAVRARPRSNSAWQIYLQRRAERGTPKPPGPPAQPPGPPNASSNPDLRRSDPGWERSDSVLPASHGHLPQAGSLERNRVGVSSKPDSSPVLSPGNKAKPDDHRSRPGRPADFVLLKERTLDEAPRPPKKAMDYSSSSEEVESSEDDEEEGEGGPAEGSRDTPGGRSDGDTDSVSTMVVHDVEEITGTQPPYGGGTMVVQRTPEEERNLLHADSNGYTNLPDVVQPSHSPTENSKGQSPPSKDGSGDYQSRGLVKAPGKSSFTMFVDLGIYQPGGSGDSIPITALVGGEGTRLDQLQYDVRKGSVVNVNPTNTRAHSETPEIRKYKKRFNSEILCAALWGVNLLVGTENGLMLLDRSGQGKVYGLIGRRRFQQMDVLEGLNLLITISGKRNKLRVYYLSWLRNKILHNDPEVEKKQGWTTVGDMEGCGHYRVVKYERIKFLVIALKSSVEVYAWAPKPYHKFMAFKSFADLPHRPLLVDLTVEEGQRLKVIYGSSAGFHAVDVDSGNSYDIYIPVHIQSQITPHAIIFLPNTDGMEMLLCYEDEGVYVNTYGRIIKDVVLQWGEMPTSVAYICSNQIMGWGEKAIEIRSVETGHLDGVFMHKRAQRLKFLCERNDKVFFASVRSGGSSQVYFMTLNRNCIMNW
Sequence of Cyclin-dependent kinase 8 (P49336 whole entry): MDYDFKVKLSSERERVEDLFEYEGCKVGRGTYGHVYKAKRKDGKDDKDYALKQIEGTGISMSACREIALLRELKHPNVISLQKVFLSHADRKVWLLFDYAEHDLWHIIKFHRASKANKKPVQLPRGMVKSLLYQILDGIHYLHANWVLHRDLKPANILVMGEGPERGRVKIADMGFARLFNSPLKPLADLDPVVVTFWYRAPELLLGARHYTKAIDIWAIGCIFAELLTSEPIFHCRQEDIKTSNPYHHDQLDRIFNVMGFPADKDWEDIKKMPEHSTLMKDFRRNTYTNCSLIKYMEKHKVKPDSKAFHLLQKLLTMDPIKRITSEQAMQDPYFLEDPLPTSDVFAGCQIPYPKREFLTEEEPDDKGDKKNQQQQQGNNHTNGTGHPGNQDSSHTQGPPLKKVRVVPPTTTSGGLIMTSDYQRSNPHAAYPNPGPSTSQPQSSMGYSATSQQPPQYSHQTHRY
Sequence of Focal adhesion kinase 1 (Q05397 whole entry): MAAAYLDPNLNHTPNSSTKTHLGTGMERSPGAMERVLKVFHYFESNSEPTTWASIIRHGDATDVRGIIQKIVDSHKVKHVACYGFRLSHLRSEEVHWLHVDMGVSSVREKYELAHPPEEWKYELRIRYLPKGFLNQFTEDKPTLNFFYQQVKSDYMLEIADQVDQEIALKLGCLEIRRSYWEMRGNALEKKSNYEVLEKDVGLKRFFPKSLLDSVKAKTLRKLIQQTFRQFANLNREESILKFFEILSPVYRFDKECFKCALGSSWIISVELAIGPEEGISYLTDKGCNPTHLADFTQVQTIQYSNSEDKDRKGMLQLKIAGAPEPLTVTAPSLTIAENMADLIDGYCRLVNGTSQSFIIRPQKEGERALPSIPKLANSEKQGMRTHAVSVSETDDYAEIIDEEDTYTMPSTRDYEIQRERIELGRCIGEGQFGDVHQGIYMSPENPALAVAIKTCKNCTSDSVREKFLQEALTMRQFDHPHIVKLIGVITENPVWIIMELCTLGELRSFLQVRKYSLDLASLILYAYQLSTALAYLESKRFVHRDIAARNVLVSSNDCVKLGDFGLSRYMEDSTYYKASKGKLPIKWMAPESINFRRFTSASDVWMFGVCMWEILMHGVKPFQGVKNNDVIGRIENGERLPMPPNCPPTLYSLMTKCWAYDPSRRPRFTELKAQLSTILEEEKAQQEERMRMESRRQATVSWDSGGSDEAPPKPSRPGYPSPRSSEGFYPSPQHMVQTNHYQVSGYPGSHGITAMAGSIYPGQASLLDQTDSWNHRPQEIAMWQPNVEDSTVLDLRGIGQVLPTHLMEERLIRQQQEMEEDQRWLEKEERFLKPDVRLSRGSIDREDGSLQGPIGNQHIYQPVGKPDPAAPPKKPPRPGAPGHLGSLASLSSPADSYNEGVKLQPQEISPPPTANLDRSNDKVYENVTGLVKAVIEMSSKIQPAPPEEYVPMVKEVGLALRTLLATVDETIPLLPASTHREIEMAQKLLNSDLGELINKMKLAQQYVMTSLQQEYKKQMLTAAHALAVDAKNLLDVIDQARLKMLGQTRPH
Sequence of Calcium/calmodulin-dependent protein kinase type II subunit delta (Q13557 whole entry): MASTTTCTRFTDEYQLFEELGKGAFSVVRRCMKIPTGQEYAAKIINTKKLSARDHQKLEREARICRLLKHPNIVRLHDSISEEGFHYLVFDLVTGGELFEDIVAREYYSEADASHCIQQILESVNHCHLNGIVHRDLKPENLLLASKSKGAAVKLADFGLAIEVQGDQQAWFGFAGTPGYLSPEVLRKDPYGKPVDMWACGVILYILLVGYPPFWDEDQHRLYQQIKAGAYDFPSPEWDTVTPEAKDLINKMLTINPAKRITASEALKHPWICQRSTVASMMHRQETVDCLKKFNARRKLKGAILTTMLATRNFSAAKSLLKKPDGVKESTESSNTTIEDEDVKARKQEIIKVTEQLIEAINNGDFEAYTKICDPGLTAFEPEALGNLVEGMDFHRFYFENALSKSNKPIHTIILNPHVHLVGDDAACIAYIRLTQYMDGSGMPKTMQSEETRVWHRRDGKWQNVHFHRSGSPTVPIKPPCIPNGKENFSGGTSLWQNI
Sequence of Tyrosine-protein kinase Lck (P06239 whole entry): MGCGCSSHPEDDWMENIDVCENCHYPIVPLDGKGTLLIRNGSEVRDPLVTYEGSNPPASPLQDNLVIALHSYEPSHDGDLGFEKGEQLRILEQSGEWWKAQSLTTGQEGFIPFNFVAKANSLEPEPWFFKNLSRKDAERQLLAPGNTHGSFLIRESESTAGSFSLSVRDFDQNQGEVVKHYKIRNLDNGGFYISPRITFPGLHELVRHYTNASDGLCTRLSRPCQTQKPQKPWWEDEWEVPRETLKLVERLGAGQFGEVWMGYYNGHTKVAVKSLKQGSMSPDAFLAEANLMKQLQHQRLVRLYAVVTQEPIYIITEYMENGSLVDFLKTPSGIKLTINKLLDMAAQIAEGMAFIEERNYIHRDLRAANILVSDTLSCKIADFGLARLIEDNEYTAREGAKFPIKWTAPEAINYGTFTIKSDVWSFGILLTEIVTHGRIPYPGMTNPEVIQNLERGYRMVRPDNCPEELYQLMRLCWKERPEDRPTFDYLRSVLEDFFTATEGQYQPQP
Sequence of Cyclin-dependent kinase 5 (Q00535 whole entry): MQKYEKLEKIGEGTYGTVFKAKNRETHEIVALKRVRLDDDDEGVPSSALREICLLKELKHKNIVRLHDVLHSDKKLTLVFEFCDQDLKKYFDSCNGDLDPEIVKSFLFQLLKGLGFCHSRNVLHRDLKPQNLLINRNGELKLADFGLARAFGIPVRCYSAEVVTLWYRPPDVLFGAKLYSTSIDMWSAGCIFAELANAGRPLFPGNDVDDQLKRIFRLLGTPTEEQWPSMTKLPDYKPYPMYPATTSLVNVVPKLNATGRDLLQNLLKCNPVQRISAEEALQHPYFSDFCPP
Sequence of Cell division cycle 7-related protein kinase (O00311 whole entry): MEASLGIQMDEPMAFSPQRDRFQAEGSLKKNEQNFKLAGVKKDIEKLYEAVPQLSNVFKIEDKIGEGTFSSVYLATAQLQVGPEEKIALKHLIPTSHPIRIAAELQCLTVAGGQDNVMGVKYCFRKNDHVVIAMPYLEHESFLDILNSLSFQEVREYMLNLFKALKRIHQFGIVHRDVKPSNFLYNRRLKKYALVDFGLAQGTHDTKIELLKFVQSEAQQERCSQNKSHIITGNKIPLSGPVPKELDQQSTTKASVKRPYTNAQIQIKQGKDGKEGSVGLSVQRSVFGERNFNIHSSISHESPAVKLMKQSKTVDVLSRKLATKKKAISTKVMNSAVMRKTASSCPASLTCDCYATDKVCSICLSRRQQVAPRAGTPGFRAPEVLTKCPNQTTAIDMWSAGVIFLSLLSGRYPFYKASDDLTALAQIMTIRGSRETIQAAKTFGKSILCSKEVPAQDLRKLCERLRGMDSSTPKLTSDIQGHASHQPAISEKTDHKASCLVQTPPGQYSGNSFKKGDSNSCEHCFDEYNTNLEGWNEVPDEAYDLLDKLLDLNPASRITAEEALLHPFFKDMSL

Cc1cc(C(=O)COC(=O)c2ccc[nH]c2=O)c(C)n1-c1ccc(F)cc1
> 73.5 µM (not active): IC50 (Aspartyl aminopeptidase)
active: IC50 (Leucine aminopeptidase) 1.98 µM | EC50 [1] 6.22 µM
> 59.6 µM (not active): IC50 (Procathepsin L)

Cc1ccc(Nc2c(C(=O)O)n(CCCOc3cccc4ccccc34)c3cccc(-c4ccccc4C)c23)cc1
active: Ki (Misshapen-like kinase 1) 6.31 µM | Ki [2] 3.98 µM | Ki [3] 2.51 µM | Ki [4] 1.26 µM | Ki [5] 3.16 µM | Ki [6] 3.16 µM | Ki [7] 3.98 µM | Ki [8] 6.31 µM

CC(C)(C)c1cc(NC(=O)C(=O)c2cccc3ccccc23)n(-c2ccc(OCC(=O)NCCO)cc2)n1
active: Ki (LIM domain kinase 1) 0.501 µM | Ki [11] 1.58 µM
inactive: Ki [9] > 6.31 µM | Ki [10] > 6.31 µM | Ki (Focal adhesion kinase 1) > 6.31 µM | Ki [12] > 6.31 µM | Ki [13] > 6.31 µM | Ki [14] > 6.31 µM | Ki [15] > 6.31 µM

COc1cc(N2CCC(N3CCN(C)CC3)CC2)ccc1Nc1ncc(Cl)c(Nc2ccccc2S(=O)(=O)C(C)C)n1 [TAE-684]
inactive: Ki [16] > 7.94 µM | Ki [17] > 10 µM | Ki [19] > 6.31 µM | Ki [22] > 1.58 µM | Ki [23] > 7.94 µM | Ki (Wee1-like protein kinase) > 0.251 µM | Ki [29] > 6.31 µM | Ki [30] > 1.58 µM | Ki [32] > 1 µM | Ki [34] > 1 µM | Ki [11] > 3.98 µM | Ki [35] > 7.94 µM | Ki [36] > 1 µM | Ki [38] > 2.51 µM | Ki [39] > 10 µM | Ki [41] > 3.98 µM | Ki [42] > 3.16 µM | Ki [43] > 5.01 µM | Ki [45] > 10 µM | Ki [46] > 7.94 µM | Ki [49] > 7.94 µM | Ki [15] > 7.94 µM
active: Ki [18] 0.0316 µM | Ki [21] 0.00398 µM | Ki [24] 0.01 µM | Ki [25] 0.126 µM | Ki [26] 0.0631 µM | Ki (Misshapen-like kinase 1) 1 µM | Ki [27] 0.02 µM | Ki [28] 3.98 µM | Ki [31] 0.0794 µM | Ki [33] 0.01 µM | Ki [37] 0.0794 µM | Ki [40] 0.316 µM | Ki [44] 0.398 µM | Ki [47] 0.00794 µM | Ki [48] 0.0794 µM | Ki [50] 0.0794 µM | Ki [51] 1.58 µM
6.9: pKi [20]

Source: ChEMBL document CHEMBL1201862, “PubChem BioAssay data set” (2004)
